Test results reported in patent US20050267156A1, “Broadspectrum 2-amino-benzothiazole sulfonamide hiv protease inhibitors” (Tibotec Pharmaceuticals Ltd., priority 2002, published 2005).
Structures can show the parent of a compound that is named as a salt. Where two headings read alike, the source gives them in different places.

Experiments:
Assay type in all cases: cell-based
HIV-1 strain LAI = assay: Cellular anti-HIV assay (MT4/MTT), wild type; settings: MT4 cells, read-out: WT (pEC50) (converted)
Method: The compounds of the present invention were examined for anti-viral activity in a cellular assay. […] The cellular assay was performed according to the following procedure. HIV- or mock-infected MT4 cells were incubated for five days in the presence of various concentrations of the inhibitor. […] Cell viability is measured by measuring the concentration of MTT, a yellow, water soluble tetrazolium dye that is converted to a purple, water insoluble formazan in the mitochondria of living cells only. Upon solubilization of the resulting formazan crystals with isopropanol, the absorbance of the solution is monitored at 540 nm. The values correlate directly to the number of living cells remaining in the culture at the completion of the five-day incubation. The inhibitory activity of the compound was monitored on the virus-infected cells and was expressed as EC50 and EC90. These values represent the amount of the compound required to protect 50% and 90%, respectively, of the cells from the cytopathogenic effect of the virus. […] The selectivity index (SI) (ratio CC50/EC50) is an indication of the selectivity of the anti-HIV activity of the inhibitor. Wherever results are reported as e.g. pEC50 or pCC50 values, the result is expressed as the negative logarithm of the result expressed as EC50 or CC50 respectively.

mutant HIV strain A = assay: microbe, parasite or virus in culture; settings: for fold resistance Strain A: FR=EC50 (mutant strain)/EC50 (HIV-1 strain LAI); for EC50: Human immunodeficiency virus 1, MT4, read-out: pEC50 Strain A, mutant HIV strain A, MT4 cells (converted)
Method: (§1) HIV- or mock-infected MT4 cells were incubated for five days in the presence of various concentrations of the inhibitor. […] Cell viability is measured by measuring the concentration of MTT, a yellow, water soluble tetrazolium dye that is converted to a purple, water insoluble formazan in the mitochondria of living cells only. Upon solubilization of the resulting formazan crystals with isopropanol, the absorbance of the solution is monitored at 540 nm. The values correlate directly to the number of living cells remaining in the culture at the completion of the five-day incubation. The inhibitory activity of the compound was monitored on the virus-infected cells and was expressed as EC50 and EC90. These values represent the amount of the compound required to protect 50% and 90%, respectively, of the cells from the cytopathogenic effect of the virus. […] The selectivity index (SI) (ratio CC50/EC50) is an indication of the selectivity of the anti-HIV activity of the inhibitor. Wherever results are reported as e.g. pEC50 or pCC50 values, the result is expressed as the negative logarithm of the result expressed as EC50 or CC50 respectively.

mutant HIV strain B = assay: microbe, parasite or virus in culture; settings: for fold resistance Strain B: FR=EC50 (mutant strain)/EC50 (HIV-1 strain LAI); for EC50: Human immunodeficiency virus 1, MT4, read-out: pEC50 Strain B, mutant HIV strain B, MT4 cells (converted)
Method: as §1

mutant HIV strain C = assay: microbe, parasite or virus in culture; settings: for fold resistance Strain C: FR=EC50 (mutant strain)/EC50 (HIV-1 strain LAI); for EC50: Human immunodeficiency virus 1, MT4, read-out: pEC50 Strain C, mutant HIV strain C, MT4 cells (converted)
Method: as §1

mutant HIV strain D = assay: microbe, parasite or virus in culture; settings: for fold resistance Strain D: FR=EC50 (mutant strain)/EC50 (HIV-1 strain LAI); for EC50: Human immunodeficiency virus 1, MT4, read-out: pEC50 Strain D, mutant HIV strain D, MT4 cells (converted)
Method: as §1

mutant HIV strain E = assay: microbe, parasite or virus in culture; settings: for fold resistance Strain E: FR=EC50 (mutant strain)/EC50 (HIV-1 strain LAI); for EC50: Human immunodeficiency virus 1, MT4, read-out: pEC50 Strain E, mutant HIV strain E, MT4 cells (converted)
Method: as §1

[1] = Toxicity on mock-infected cells (MTT); settings: human
Method: HIV- or mock-infected MT4 cells were incubated for five days in the presence of various concentrations of the inhibitor. At the end of the incubation period, the replicating virus in the control cultures has killed all HIV-infected cells in the absence of any inhibitor. Cell viability is measured by measuring the concentration of MTT, a yellow, water soluble tetrazolium dye that is converted to a purple, water insoluble formazan in the mitochondria of living cells only. Upon solubilization of the resulting formazan crystals with isopropanol, the absorbance of the solution is monitored at 540 nm. The values correlate directly to the number of living cells remaining in the culture at the completion of the five-day incubation. The inhibitory activity of the compound was monitored on the virus-infected cells and was expressed as EC50 and EC90. These values represent the amount of the compound required to protect 50% and 90%, respectively, of the cells from the cytopathogenic effect of the virus. […] The selectivity index (SI) (ratio CC50/EC50) is an indication of the selectivity of the anti-HIV activity of the inhibitor. Wherever results are reported as e.g. pEC50 or pCC50 values, the result is expressed as the negative logarithm of the result expressed as EC50 or CC50 respectively.

mutant HIV strain F = assay: microbe, parasite or virus in culture; settings: for fold resistance Strain F: FR=EC50 (mutant strain)/EC50 (HIV-1 strain LAI); for EC50: Human immunodeficiency virus 1, MT4, read-out: pEC50 Strain F, mutant HIV strain F, MT4 cells (converted)
Method: as §1

[2] = Human immunodeficiency virus 1, wild type HIV-1 strain LAI
[3] = Human immunodeficiency virus 1, MT4, wild type HIV-1 strain LAI

| Compound | EC50 (HIV-1 strain LAI; [2]) | fold resistance Strain A (mutant HIV strain A) | EC50 (mutant HIV strain A) | fold resistance Strain B (mutant HIV strain B) | EC50 (mutant HIV strain B) | fold resistance Strain C (mutant HIV strain C) | EC50 (mutant HIV strain C) | fold resistance Strain D (mutant HIV strain D) | EC50 (mutant HIV strain D) | fold resistance Strain E (mutant HIV strain E) | EC50 (mutant HIV strain E) | CC50 at 5 days [1] | fold resistance Strain F (mutant HIV strain F) | EC50 (mutant HIV strain F) | also measured |
| --- | --- | --- | --- | --- | --- | --- | --- | --- | --- | --- | --- | --- | --- | --- | --- |
| CC(C)CN(C[C@@H](O)[C@H](Cc1ccccc1)NC(=O)OC1CCOC1)S(=O)(=O)c1ccc2nc(N)sc2c1 (stereo partly drawn) [Compound 12, {(1S,2R)-3-[(2-amino-benzothiazole-6-sulfonyl)-isobutyl-amino]-1-benzyl-2-hydroxypropyl}-carbamic acid tetrahydro-furan-3-yl ester] | 4.27 nM | 53.7 | 229 nM | 1.8 | 7.59 nM | 44.7 | 191 nM | 6.2 | 26.3 nM | 1.8 | 7.76 nM | > 100000 nM |  |  |  |
| CC(C)CN(C[C@@H](O)[C@H](Cc1ccccc1)NC(=O)OCc1cncs1)S(=O)(=O)c1ccc2nc(N)sc2c1 [Compound 3, {(1S,2R)-3-[(2-amino-benzothiazole-6-sulfonyl)-isobutyl-amino]-1-benzyl-2-hydroxypropyl}-carbamic acid thiazol-5-ylmethyl ester] | 4.57 nM | 6.6 | 30.2 nM | 1.9 | 8.91 nM | 3.4 | 15.5 nM | 7.9 | 36.3 nM | 4.8 | 21.9 nM | 74100 nM | 11.7 | 53.7 nM |  |
| CC(C)CN(C[C@@H](O)[C@H](Cc1ccccc1)NC(=O)OC1COC2OCCC12)S(=O)(=O)c1ccc2nc(N(C)C)sc2c1 (stereo partly drawn) [Compound 6, {(1S,2R)-1-benzyl-3-[(2-dimethylamino-benzothiazole-6-sulfonyl)-isobutyl-amino]-2-hydroxy-propyl}-carbamic acid hexahydro-furo[2,3-b]furan-3-yl ester] | 3.98 nM | 50.1 | 200 nM | 32.4 | 129 nM | 8.5 | 33.9 nM | 27.5 | 110 nM |  |  | > 100000 nM | 177.8 | 708 nM |  |
| CC(C)CN(C[C@@H](O)[C@H](Cc1ccccc1)NC(=O)OCc1ccccc1)S(=O)(=O)c1ccc2nc(N)sc2c1 [Compound 7, {(1S,2R)-3-[(2-amino-benzothiazole-6-sulfonyl)-isobutyl-amino]-1-benzyl-2-hydroxypropyl}-carbamic acid benzyl ester] | 5.89 nM | 72.4 | 427 nM | 5.0 | 29.5 nM | 5.5 | 32.4 nM | 20.0 | 117 nM | 7.4 | 43.7 nM | 46800 nM | 131.8 | 776 nM |  |
| CC(C)CN(C[C@@H](O)[C@H](Cc1ccccc1)NC(=O)OCc1cccnc1)S(=O)(=O)c1ccc2nc(N)sc2c1 [Compound 9, {(1S,2R)-3-[(2-amino-benzothiazole-6-sulfonyl)-isobutyl-amino]-1-benzyl-2-hydroxypropyl}-carbamic acid pyridin-3-ylmethyl ester] | 4.9 nM | 53.7 | 263 nM | 1.1 | 5.62 nM | 1000.0 | 4900 nM | 8.5 | 41.7 nM | 4.9 | 24 nM | 51300 nM |  |  |  |
| CNc1nc2ccc(S(=O)(=O)N(CC(C)C)C[C@@H](O)[C@H](Cc3ccccc3)NC(=O)OCc3cncs3)cc2s1.O=C(O)C(F)(F)F [Compound 19, {(1S,2R)-1-benzyl-2-hydroxy-3-[isobutyl-(2-methylamino-benzothiazole-6-sulfonyl)-amino]-propyl}-carbamic acid thiazol-5-ylmethyl ester trifluoroacetate] |  |  |  |  |  |  |  |  |  |  |  |  |  |  | EC50 (HIV-1 strain LAI; [3]): 3.09 nM; pEC50 Strain A (mutant HIV strain A; mutant HIV strain A, MT4 cells): 7.36; pEC50 Strain B (mutant HIV strain B; mutant HIV strain B, MT4 cells): 7.80; pEC50 Strain C (mutant HIV strain C; mutant HIV strain C, MT4 cells): 7.88; pEC50 Strain D (mutant HIV strain D; mutant HIV strain D, MT4 cells): 7.43; pEC50 Strain E (mutant HIV strain E; mutant HIV strain E, MT4 cells): 7.90; pEC50 Strain F (mutant HIV strain F; mutant HIV strain F, MT4 cells): 6.80 |
| CNc1nc2ccc(S(=O)(=O)N(CC(C)C)C[C@@H](O)[C@H](Cc3ccccc3)NC(=O)c3cccc(O)c3C)cc2s1 [Compound 23, N-{(1S,2R)-1-benzyl-2-hydroxy-3-[isobutyl-(2-methylamino-benzothiazole-6-sulfonyl)-amino]-propyl}-3-hydroxy-2-methyl-benzamide trifluoroacetate] |  |  | 288 nM |  | 9.55 nM |  | 8.71 nM |  | 21.4 nM |  | 7.24 nM | 69200 nM |  |  | EC50 (HIV-1 strain LAI; [3]): 4.57 nM |
| Cc1ccccc1C(=O)N[C@@H](Cc1ccccc1)[C@H](O)CN(CC(C)C)S(=O)(=O)c1ccc2nc(N)sc2c1 [Compound 14, N-{(1S,2R)-3-[(2-amino-benzothiazole-6-sulfonyl)-isobutyl-amino]-1-benzyl-2-hydroxypropyl}-2-methyl-benzamide] | 3.8 nM | 234.4 | 891 nM | 7.1 | 26.9 nM | 46.8 | 178 nM | 10.5 | 39.8 nM | 7.9 | 30.2 nM | 46800 nM |  |  |  |
| CNc1nc2ccc(S(=O)(=O)N(CC(C)C)C[C@@H](O)[C@H](Cc3ccccc3)NC(=O)COc3c(C)cc(N)cc3C)cc2s1 [Compound 26, 2-(4-amino-2,6-dimethyl-phenoxy)-N-{(1S,2R)-1-benzyl-2-hydroxy-3-[isobutyl-(2-methylamino-benzothiazole-6-sulfonyl)-amino]-propyl}-acetamide] | 2.69 nM | 11.2 | 30.2 nM | 1.5 | 3.98 nM | 2.7 | 7.24 nM | 3.1 | 8.32 nM | 2.3 | 6.17 nM |  | 20.9 | 56.2 nM |  |
